Measured values from patent US10987359B2, “Oxadiazepinone derivatives and methods of treating hepatitis B infections” (priority 2016, dated 2021).

test system: HBV; experiment: HBV replication inhibition assay (BDNA assay) in HepG2.2.15 cells; type: cell-based; conditions: HBV replication assay (BDNA assay), HepG2.2.15 cells; read-out: DNA EC50
Method in brief: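 HepG2.2.15 cells with stably integrated HBV were treated with serially diluted compounds at 0.5% DMSO for 6 days, with medium and compound refreshed at day 3. Encapsidated HBV DNA from DNase-treated supernatant was quantified by branched DNA assay. EC50 came from % inhibition versus DMSO, fitted non-linearly.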

SMILES	EC50 [nM]
CNC(=O)C1Cn2nc3c(c2C(=O)N(C)O1)CN(C(=O)Nc1ccc(F)c(Cl)c1F)[C@H](C)C3 (single isomer, unassigned) [Compound 110_D2, (4R*,9R)—N10-(3-chloro-2,4-difluorophenyl)-N4,2,9-trimethyl-1-oxo-1,4,5,8,9,11-hexahydropyrido[4′,3′:3,4]pyrazolo[5,1-d][1,2,5]oxadiazepine-4,10(2H)-dicarboxamide]	1 to 100
C[C@@H]1Cc2nn3c(c2CN1C(=O)Nc1ccc(F)c(C#N)c1)C(=O)N(C)OC(CNS(C)(=O)=O)C3 (single isomer, unassigned) [Compound 178_D1, (4S*,9R)—N-(3-cyano-4-fluorophenyl)-2,9-dimethyl-4-(methylsulfonamidomethyl)-1-oxo-1,4,5,8,9,11-hexahydropyrido[4′,3′:3,4]pyrazolo[5,1-d][1,2,5]oxadiazepine-10(2H)-carboxamide]	100 to 500
C[C@@H]1Cc2nn3c(c2CN1C(=O)Nc1ccc(F)c(C(F)(F)F)c1)C(=O)N(C)OC(CO)C3 (stereo in doubt) [Compound 082_E2, (4R*,9R)—N-(4-fluoro-3-(trifluoromethyl)phenyl)-4-(hydroxymethyl)-2,9-dimethyl-1-oxo-1,4,5,8,9,11-hexahydropyrido[4′,3′:3,4]pyrazolo[5,1-d][1,2,5]oxadiazepine-10(2H)-carboxamide]	1 to 100
CNC(=O)C1Cn2nc3c(c2C(=O)N(C)O1)CN(C(=O)Nc1ccc(F)c(Cl)c1F)[C@H](C)C3 (single isomer, unassigned) [Compound 110_D1, (4S*,9R)—N10-(3-chloro-2,4-difluorophenyl)-N4,2,9-trimethyl-1-oxo-1,4,5,8,9,11-hexahydropyrido[4′,3′:3,4]pyrazolo[5,1-d][1,2,5]oxadiazepine-4,10(2H)-dicarboxamide]	500 to 1000
Cc1cc(NC(=O)N2Cc3c(nn4c3C(=O)N(C)OC(COCC(F)F)C4)C[C@H]2C)ccc1F (stereo in doubt) [Compound 125_D2, (4R*,9R)-4-((2,2-difluoroethoxy)methyl)-N-(4-fluoro-3-methylphenyl)-2,9-dimethyl-1-oxo-1,4,5,8,9,11-hexahydropyrido[4′,3′:3,4]pyrazolo[5,1-d][1,2,5]oxadiazepine-10(2H)-carboxamide]	1 to 100
C[C@@H]1Cc2nn3c(c2CN1C(=O)Nc1ccnc(Br)c1F)C(=O)N(C)OC(COCC(F)F)C3 (stereo in doubt) [Compound 123_D1, (4S*,9R)—N-(2-bromo-3-fluoropyridin-4-yl)-4-((2,2-difluoroethoxy)methyl)-2,9-dimethyl-1-oxo-1,4,5,8,9,11-hexahydropyrido[4′,3′:3,4]pyrazolo[5,1-d][1,2,5]oxadiazepine-10(2H)-carboxamide]	100 to 500

same assay, conditions: Hepatitis B virus, HepG2.2.15, HBV replication assay (BDNA assay), HepG2.2.15 cells; read-out: DNA EC50

SMILES	EC50 [nM]
CCCN1CCn2nc3c(c2C(=O)N1C)CN(C(=O)Nc1ccc(F)c(C#N)c1)[C@H](C)C3 [Compound 219, (R)—N-(3-cyano-4-fluorophenyl)-2,9-dimethyl-1-oxo-3-propyl-1,2,3,4,5,8,9,11-octahydro-10H-pyrido[4′,3′:3,4]pyrazolo[5,1-d][1,2,5]triazepine-10-carboxamide]	1 to 100
CNC(=O)C1Cn2nc3c(c2C(=O)N(C)O1)CN(C(=O)Nc1cc(Cl)c(F)cc1F)CC3 (stereo not drawn) [Compound 119, N10-(5-chloro-2,4-difluorophenyl)-N4,2-dimethyl-1-oxo-1,4,5,8,9,11-hexahydropyrido[4′,3′:3,4]pyrazolo[5,1-d][1,2,5]oxadiazepine-4,10(2H)-dicarboxamide]	100 to 500
CN1OC(CO)Cn2nc3c(c2C1=O)CN(C(=O)Nc1cccc(S(F)(F)(F)(F)F)c1)CC3 (stereo not drawn) [Compound 029, 4-(hydroxymethyl)-2-methyl-1-oxo-N-(3-(pentafluoro-16-sulfanyl)phenyl)-1,4,5,8,9,11-hexahydropyrido[4′,3′:3,4]pyrazolo[5,1-d][1,2,5]oxadiazepine-10(2H)-carboxamide]	1 to 100
CN1OC(CF)Cn2nc3c(c2C1=O)CN(C(=O)Nc1ccnc(Br)c1F)CC3 (single isomer, unassigned) [Compound 041_E1, (S*)—N-(2-bromo-3-fluoropyridin-4-yl)-4-(fluoromethyl)-2-methyl-1-oxo-1,4,5,8,9,11-hexahydropyrido[4′,3′:3,4]pyrazolo[5,1-d][1,2,5]oxadiazepine-10(2H)-carboxamide]	1 to 100
C[C@@H]1Cc2nn3c(c2CN1C(=O)Nc1ccc(F)c(C#N)c1)C(=O)N(C)OC(CF)C3 (stereo in doubt) [Compound 087_E1, (4S*,9R)—N-(3-cyano-4-fluorophenyl)-4-(fluoromethyl)-2,9-dimethyl-1-oxo-1,4,5,8,9,11-hexahydropyrido[4′,3′:3,4]pyrazolo[5,1-d][1,2,5]oxadiazepine-10(2H)-carboxamide]	1 to 100
CN1OC(CNCC(F)F)Cn2nc3c(c2C1=O)CN(C(=O)Nc1ccc(F)c(Cl)c1F)CC3 (single isomer, unassigned) [Compound 188_E1, (S*)—N-(3-chloro-2,4-difluorophenyl)-4-(((2,2-difluoroethyl)amino)methyl)-2-methyl-1-oxo-1,4,5,8,9,11-hexahydropyrido[4′,3′:3,4]pyrazolo[5,1-d][1,2,5]oxadiazepine-10(2H)-carboxamide]	1 to 100
C[C@@H]1Cc2nn3c(c2CN1C(=O)Nc1ccc(F)c(Br)c1)C(=O)N(C)OCC3 [Compound 077, (R)—N-(3-bromo-4-fluorophenyl)-2,9-dimethyl-1-oxo-1,4,5,8,9,11-hexahydropyrido[4′,3′:3,4]pyrazolo[5,1-d][1,2,5]oxadiazepine-10(2H)-carboxamide]	1 to 100
CN1OC(COCC(F)(F)F)Cn2nc3c(c2C1=O)CN(C(=O)Nc1ccc(F)c(C#N)c1)CC3 (single isomer, unassigned) [Compound 211, (S*)—N-(3-cyano-4-fluorophenyl)-2-methyl-1-oxo-4-((2,2,2-trifluoroethoxy)methyl)-1,4,5,8,9,11-hexahydropyrido[4′,3′:3,4]pyrazolo[5,1-d][1,2,5]oxadiazepine-10(2H)-carboxamide]	1 to 100
CN1OC(CNCC(F)F)Cn2nc3c(c2C1=O)CN(C(=O)Nc1ccc(F)c(Br)c1)CC3 (single isomer, unassigned) [Compound 190_E1, (S*)—N-(3-bromo-4-fluorophenyl)-4-(((2,2-difluoroethyl)amino)methyl)-2-methyl-1-oxo-1,4,5,8,9,11-hexahydropyrido[4′,3′:3,4]pyrazolo[5,1-d][1,2,5]oxadiazepine-10(2H)-carboxamide]	1 to 100
CC(O)CN1CCn2nc3c(c2C(=O)N1C)CN(C(=O)Nc1ccc(F)c(C#N)c1)[C@H](C)C3 (stereo partly drawn) [Compound 223, (9R)—N-(3-Cyano-4-fluorophenyl)-3-(2-hydroxypropyl)-2,9-dimethyl-1-oxo-1,2,3,4,5,8,9,11-octahydro-10H-pyrido[4′,3′:3,4]pyrazolo[5,1-d][1,2,5]triazepine-10-carboxamide]	100 to 500
C[C@@H]1Cc2nn3c(c2CN1C(=O)Nc1ccc(F)c(Cl)c1F)C(=O)N(C)OC(CO)C3 (stereo in doubt) [Compound 091_E1, (4S*,9R)—N-(3-chloro-2,4-difluorophenyl)-4-(hydroxymethyl)-2,9-dimethyl-1-oxo-1,4,5,8,9,11-hexahydropyrido[4′,3′:3,4]pyrazolo[5,1-d][1,2,5]oxadiazepine-10(2H)-carboxamide]	1 to 100
CN1OC(CO)Cn2nc3c(c2C1=O)CN(C(=O)Nc1cc(Cl)c(F)cc1F)CC3 (stereo not drawn) [Compound 013, N-(5-chloro-2,4-difluorophenyl)-4-(hydroxymethyl)-2-methyl-1-oxo-1,4,5,8,9,11-hexahydropyrido[4′,3′:3,4]pyrazolo[5,1-d][1,2,5]oxadiazepine-10(2H)-carboxamide]	1 to 100
CN1OC(COCC2CC2)Cn2nc3c(c2C1=O)CN(C(=O)Nc1ccc(F)c(Cl)c1)CC3 (stereo not drawn) [Compound 104, N-(3-chloro-4-fluoro-phenyl)-4-(cyclopropylmethoxymethyl)-2-methyl-1-oxo-5,8,9,11-tetrahydro-4H-pyrido[2,3]pyrazolo[2,4-d][1,2,5]oxadiazepine-10-carboxamide]	1 to 100
CC(C)C(=O)NCC1Cn2nc3c(c2C(=O)N(C)O1)CN(C(=O)Nc1ccc(F)c(Cl)c1)CC3 (stereo not drawn) [Compound 200, N-(3-chloro-4-fluorophenyl)-4-(isobutyramidomethyl)-2-methyl-1-oxo-1,4,5,8,9,11-hexahydropyrido[4′,3′:3,4]pyrazolo[5,1-d][1,2,5]oxadiazepine-10(2H)-carboxamide]	1 to 100
C[C@@H]1Cc2nn3c(c2CN1C(=O)Nc1ccc(F)c(C(F)(F)F)c1)C(=O)N(C)OC(CF)C3 (stereo in doubt) [Compound 085_E1, (4S*,9R)—N-(4-fluoro-3-(trifluoromethyl)phenyl)-4-(fluoromethyl)-2,9-dimethyl-1-oxo-1,4,5,8,9,11-hexahydropyrido[4′,3′:3,4]pyrazolo[5,1-d][1,2,5]oxadiazepine-10(2H)-carboxamide]	1 to 100
CNC(=O)C1Cn2nc3c(c2C(=O)N(C)O1)CN(C(=O)Nc1ccc(F)c(C#N)c1)CC3 (stereo not drawn) [Compound 120, N10-(3-cyano-4-fluorophenyl)-N4,2-dimethyl-1-oxo-1,4,5,8,9,11-hexahydropyrido[4′,3′:3,4]pyrazolo[5,1-d][1,2,5]oxadiazepine-4,10(2H)-dicarboxamide]	100 to 500
C[C@@H]1Cc2nn3c(c2CN1C(=O)Nc1ccc(F)c(Cl)c1)C(=O)N(C)OC(COCC(F)F)C3 (single isomer, unassigned) [Compound 121_D1, (4S*,9R)—N-(3-chloro-4-fluorophenyl)-4-((2,2-difluoroethoxy)methyl)-2,9-dimethyl-1-oxo-1,4,5,8,9,11-hexahydropyrido[4′,3′:3,4]pyrazolo[5,1-d][1,2,5]oxadiazepine-10(2H)-carboxamide]	1 to 100
CN1N=C(CO)Cn2nc3c(c2C1=O)CN(C(=O)Nc1ccc(F)c(Cl)c1)CC3 [Compound 227, N-(3-chloro-4-fluorophenyl)-4-(hydroxymethyl)-2-methyl-1-oxo-1,2,5,8,9,11-hexahydro-10H-pyrido[4′,3′:3,4]pyrazolo[5,1-d][1,2,5]triazepine-10-carboxamide]	1 to 100
